Laboratory results from patent US6482855B2, “Diamine alkylene diacetic or triacetic acid derivatives, preparation method, use in cosmetic and pharmaceutical compositions and compositions containing them” (L'Oreal S.A., priority 1997, dated 2002).
Structures can show the parent of a compound that is named as a salt.

Key:
V79 cells = experiment: Protection of V79 cells against the toxicity of H2O2 (neutral red technique); format: cell-based; settings: for IC50: Cricetulus griseus, 1 hour contact with compound, then 30 μM H2O2 for one hour, cell number after 72 hours by neutral red, read-out: Result (concentration inducing 50% protection), IC50
Method: The activity of the compounds was evaluated by their ability to protect V79 cells against the toxicity of H2O2, a technique conventionally used to evaluate the effectiveness of antioxidants or iron-chelating agents.
V79 cells were subcultured in DMEM (Dulbecco Modified Essential Medium) medium supplemented with 10% of foetal calf serum, streptomycin, penicillin and glutamine at 37° C. under an atmosphere of 95% air+5% CO2.
The cells were subsequently seeded at a density of 5×10^3/ml in 96-well plates.
After 24 hours, the cells were rinsed and then incubated with the test compounds at different concentrations.
After a contact time of 1 hour, 30 μM of H2O2 were added and incubated at 37° C. for a further one hour.
The cells were subsequently rinsed and then again brought into contact with the supplemented medium described above.
After 72 hours, the number of cells was evaluated in each well by using the neutral red technique.
The protective effect is assessed by the IC50, which measures the concentration which induces 50% protection against cytotoxicity in comparison with the wells treated only with H2O2.

[1] = Solubility limit noted in the V79 protection test; format: physicochemical; settings: beyond 1 mM

Compound	IC50 (V79 cells) [µM]	solubility of compound in the test [1]	protection against H2O2 cytotoxicity (V79 cells; compound at 10 mM, 30 μM H2O2)
COc1cc(CN(CCN(CC(=O)OCOC(C)=O)Cc2cc(OC)c(OC)c(OC)c2)CC(=O)OCOC(C)=O)cc(OC)c1OC [Example 1, bis(acetoxymethyl) [N,N′-bis(3,4,5-trimethoxybenzyl)]-ethylenediamine-N,N′-diacetate]	10	–	–
COC(=O)CN(CCN(CC(=O)OC)Cc1cc(OC)c(OC)c(OC)c1)Cc1cc(OC)c(OC)c(OC)c1 [Comparative 2]	> 1000	insoluble beyond this point)	–
COc1cc(CN(CCN(CC(=O)O)Cc2cc(OC)c(OC)c(OC)c2)CC(=O)O)cc(OC)c1OC [Comparative 1, the dihydrochloride of N,N′-bis(3,4,5-trimethoxybenzyl)ethylenediamine-N,N′-diacetic acid]	–	–	25% protection only at 10 mM
